Results from patent US6858633B1, “Substituted 2-arylbenzazole compounds and their use as antitumour agents” (Cancer Research Technology Limited, priority 1999, dated 2005).
Structures can show the parent of a compound that is named as a salt. Where two headings read alike, the source gives them in different places.

Experiments:
MDA468 = assay: In vitro cytotoxicity, 3-day MTT assay, MDA468; format: cell-based
Experimental: (§1) In carrying out the following cytoloxicity assays, the method used corresponds substantially to the following example: • Cells were maintained in a continuous logarithmic culture in RMPI 1640 with L-glutamine medium, supplemented with 10% fetal calf serum, penicillin (100 IU/ml) and streptomycin (100 μg/ml). The cells were mildly trypsinized for passage and for use in assays. • On day one, 180 μl of trypsinized tumour cells (5×10^3 ml^−1) were placed in the wells of 96-well, flat-bottom microtiter plates. Columns 1 and 12 were filled with 300 μl medium to protect from evaporation. The plates were incubated for 24 hours at 37° C. and 5% CO2 in air to allow the cells to adhere and resume exponential growth prior to the addition of drugs. The compounds being tested were dissolved in DMSO and stored as 10 mM stock solutions at 4° C., protected from light. […] 20 μl of drug dilution was added to the other wells with the lowest concentration in column 3 and the highest concentration in column 11. The plates were incubated for 72 hours at 37° C. and 5% CO2 in air. Each compound was tested in triplicate. At the time of drug addition, a plate of untreated cells was read to provide an initial optical density value for use in the calculation of the IC50. • On day five the plates were read. 50 μl MTT (1 mg/ml^−1) was added per well and the plates incubated for a further 4 hours. The MTT is metaboliscd to form a blue formazan product. The MTT solution was aspirattd and 125 μl DMSO:glycine buffer (4:1) was added. The plates were placed on a plate shaker until the fornazan crystals had dissolved and absorbance was ready at 550 nm on a plate reader. • For each compound tested, a dose response curve was obtained and the IC50 statue (drug concentration at 50% inhibition of cell growth) was calculated.
(§2) (n=8) for a range of compounds in relation to MCF-7 and MDA 468 cell lines.

MCF-7 = assay: In vitro cytotoxicity, 3-day MTT assay, MCF-7; format: cell-based, human; conditions: for IC50: 3-day MTT assay
Experimental: as §1, §2

[1] = Blood parameters and liver transaminases in xenograft studies; design: species or system nude mice; conditions: mouse, in vivo
COLO205 xenografts = assay: In vivo COLO205 xenograft study (FIG. 2)
[2] = tested on: ER positive MCF-7 human breast tumor xenografts; conditions: for in vivo growth retardation of MCF-7 xenografts: prodrugs
sensitive cell lines = assay: Biphasic dose-response relationship (second growth phase) in sensitive cell lines; format: cell-based
Source text: One feature of the prior art compounds is that they show a biphasic dose-response relationship specifically in sensitive cell lines: cell kill occurs at low nanomolar concentrations of the compounds, followed by a potentially undesirable proliferative response at low micromolar concentrations (termed the “second growth phase”).

[3] = tested on: ER negative MT-1 human breast tumor xenografts; conditions: for in vivo growth retardation of MT-1 xenografts: prodrugs
[4] = rats, i.v., typical dose 25 mg/kg
[5] = Stability in plasma in vitro; format: in vitro ADME, rat; conditions: hydrochloride salts; rat and other mammalian plasma
[6] = 72 h, asterisked values, IC50 concentration in μM
[7] = surviving mice treated with prodrug

Molecule | IC50 (MDA468; n=8) | IC50 (MCF-7; n=8) | IC50 (MCF-7; Homo sapiens, MCF7, 72 h, n=8) | IC50 (MDA468; 72 h, n=8) | other results
7-Fluoro-2-(4′-imino-3′-methylphenyl)benzothiazole [Ih] | 0.0103 µM | 0.00239 µM | – | – | –
Cc1cc(-c2nc3c(F)cccc3s2)ccc1N [Compound Ia] | 0.00013 µM | < 0.0001 µM | – | – | –
Cc1cc(-c2nc3cc(I)ccc3s2)ccc1N [Compound Iak, 5-Iodo-2-(4′-amino-3′-methylphenyl)benzothiazole] | – | – | 0.493 µM | – | IC50 (MDA468; [6]): 80.9 µM; melting point: 200 to 202 °C
Cc1cc(-c2nc3ccc(F)cc3s2)ccc1NC(=O)C(C)N (centres unmarked) [Iac, 6-Fluoro-2-(4′-amino-3′-Methylphenyl)benzothiazole Alanyl Amide Hydrochloride Salt] | 0.297 µM | 0.044 µM | – | – | –
Cc1cc(-c2nc3ccc(F)cc3s2)ccc1NC(=O)C(N)CCCCN (centres unmarked) [Iae, 6-Fluoro-2-(4′-amino-3′-methylphenyl)benzothiazole Lysyl Amide Dihydrochloride Salt] | 0.328 µM | 0.147 µM | – | – | –
Cc1cc(-c2nc3cc(F)ccc3s2)ccc1NC(=O)C(C)N.Cl (centres unmarked) [Iaf, 5-Fluoro-2-(4′-amino-3′-metbylphenyl)benzothiazole Alanyl Amide Hydrochloride Salt] | 0.0377 µM | 0.00589 µM | – | – | IC50 in MCF-7 cells, fold lower than that of other amido prodrugs (MCF-7; compared with other prodrugs): > 5 fold
Cc1cc(-c2nc3cccc(I)c3s2)ccc1N [Ial, 7-Iodo-2-(4′-amino-3′-methylphenyl)benzothiazole] | – | – | 0.0283 µM | 0.323 µM | –
CC(=O)Nc1ccc(-c2nc3cc(F)ccc3s2)cc1C [Iam, 5-Fluoro-2-(4′-acetamido-3′-methylphenyl)benzothiazole] | – | – | – | – | IC50 (MDA468; [6]): 5.84 µM; IC50 (MCF-7; Homo sapiens, MCF7, 72 h, asterisked values, IC50 concentration in μM): 7.64 µM; melting point: 219 to 221 °C
N#Cc1cc(-c2nc3cc(F)ccc3s2)ccc1N [Ian, 5-Fluoro-2-(4′-amino-3′-cyanophenyl)benzothiazole] | – | – | < 0.0001 µM | < 0.0001 µM | melting point: 268 to 270 °C
Nc1ccc(-c2nc3cc(F)ccc3s2)cc1CO [Iaq, 5-Fluoro-2-(4′-amino-3′-(hydroxymethyl)phenyl)benzothiazole] | – | – | < 0.0001 µM | 0.00043 µM | melting point: 242 to 245 °C
Cc1cc(-c2nc3cc(F)c(F)cc3s2)ccc1NC(=O)C(C)N (centres unmarked) [Iar, 5,6-Difluoro-2-(4′-amino-3′-methylphenyl)benzothiazole Alany Amide Hydrochloride Salt] | 0.217 µM | 0.0331 µM | – | – | –
Cc1cc(-c2nc3cc(F)c(F)cc3s2)ccc1NC(=O)C(N)CCCCN (centres unmarked) [Ias, 5,6-Difluoro-2-(4′-amino-3′-methylphenyl)benzothiazole Lysyl Amide Dihydrochloride] | 0.302 µM | 0.0307 µM | – | – | –
Cc1cc(-c2nc3ccc(F)cc3s2)ccc1N [Ib, 6-Fluoro-2-(4′-amino-3′-methylphenyl)benzothiazole] | – | – | < 0.0001 µM | 0.00011 µM | blood parameters (white blood cell and platelet counts) and level of liver transaminases [1]: not adversely affected; tumour growth inhibition, COLO205 xenografts (FIG. 2) (COLO205 xenografts): tumour growth inhibition observed; growth inhibition of MCF-7 xenografts ([2]; given i.p.): Significant growth inhibition; biphasic dose-response (second growth phase) (sensitive cell lines): the biphasic response is eliminated; growth inhibition of MT-1 xenografts compared with same dose of (Ik) ([3]; 12.5 mg/kg): more pronounced growth inhibition; tumor growth inhibition in MT-1 xenografts ([3]; dose dependence): dose-dependent tumor growth inhibition; weight loss in MT-1 xenograft study ([3]; dose dependence): weight loss
Nc1ccc(-c2nc3c(F)cccc3s2)cc1 [Ic, 4-Fluoro2-(4-aminophenyl)benzothiazole] | – | – | 0.00854 µM | 0.0294 µM | –
Nc1ccc(-c2nc3ccc(F)cc3s2)cc1 [Id, 6-Fluoro2-(4′-aminophenyl)benzothiazole] | – | – | < 0.0001 µM | 0.0481 µM | –
Cc1cc(-c2nc3c(F)c(F)ccc3s2)ccc1N [Ie, 4,5-Difluoro-2-(4′-amino-3′-methylphenyl)benzothiazole] | – | – | 0.00064 µM | 0.00067 µM | –

Molecule | IC50 (MDA468; n=8) | IC50 (MCF-7; n=8) | IC50 (MCF-7; Homo sapiens, MCF7, 72 h, n=8) | IC50 (MDA468; 72 h, n=8) | other results
Cc1cc(-c2nc3c(F)cc(F)cc3s2)ccc1N [If] | 0.00535 µM | < 0.0001 µM | – | – | –
Cc1cc(-c2nc3cc(F)cc(F)c3s2)ccc1N [Ig, 5,7-Difluoro-2-(4′-amino3′-methylphenyl)benzothiazole] | – | – | 0.0009 µM | 0.0044 µM | –
Cc1cc(-c2nc3cc(F)c(F)cc3s2)ccc1N [Ii, 5,6-Difluoro-2-(4′-amino-3′-methylphenyl)benzothiazole] | – | – | < 0.0001 µM | 0.00355 µM | –
Nc1ccc(-c2nc3cc(F)ccc3s2)cc1 [Il, 5-Fluoro-2-(4′-aminophenyl)benzothiazole] | – | – | < 0.0001 µM | < 0.0001 µM | –
Nc1ccc(-c2nc3c(F)cccc3s2)cc1I [Im, 4-Fluoro-2-(4′-amino-3′-iodophenyl)benzothiazole] | – | – | 0.00788 µM | 0.00911 µM | –
Nc1ccc(-c2nc3cc(F)ccc3s2)cc1I [In, 5-Fluoro-2-(4′-amino-3′-iodophenyl)benzothiazole] | – | – | < 0.0001 µM | < 0.0001 µM | –
Nc1ccc(-c2nc3ccc(F)cc3s2)cc1I [Io, 6-Fluoro-2-(4′-amino-3′-iodophenyl)benzothiazole] | – | – | < 0.0001 µM | < 0.0001 µM | –
Nc1ccc(-c2nc3c(F)cccc3s2)cc1Cl [Ip, 4-Fluoro-2-(4′-amino-3′-chlorophenyl)benzothiazole] | – | – | 0.00095 µM | 0.00193 µM | –
Nc1ccc(-c2nc3cc(F)ccc3s2)cc1Cl [Iq, 5-Fluoro-2-(4′-amino-3′-chlorophenyl)benzothiazole] | – | – | 0.00709 µM | 0.0189 µM | –
Nc1ccc(-c2nc3ccc(F)cc3s2)cc1Cl [Ir, 6-Fluoro-2-(4′-amino3′chlorophenYl)bcnzothiazole] | 0.0117 µM | 0.00408 µM | – | – | –
Nc1ccc(-c2nc3c(F)cccc3s2)cc1Br [Is, 4-Fluoro-2-(4′amino-3′-bromophenyl)benzothiazole] | – | – | 0.0382 µM | 0.024 µM | –
Nc1ccc(-c2nc3cc(F)ccc3s2)cc1Br [It, 5-Fluoro-2-(4′-amino-3′-bromophenyl)benzothiazole] | – | – | < 0.0001 µM | 0.0002 µM | –
Nc1ccc(-c2nc3ccc(F)cc3s2)cc1Br [Iu, 6-Fluoro2-(4′-amino-3′-bromophenyl)benzothiazole] | – | – | 0.0455 µM | 0.0687 µM | –
CC(N)C(=O)Nc1ccc(-c2nc3ccccc3s2)cc1.Cl (centres unmarked) [Iv, 2-(4′-Aminophenyl)benzothiazole Alanyl Amide Hydrochloride Salt] | 0.04 µM | 0.06 µM | – | – | tumour growth inhibition, COLO205 xenografts (FIG. 2) (COLO205 xenografts): tumour growth inhibition observed
Cc1cc(-c2nc3ccccc3s2)ccc1NC(=O)C(C)N.Cl (centres unmarked) [Iw, 2-(4′-Amino-3′-methylphenyl)benzothiazole Alanyl Amide Hydrochloride Salt] | 0.34 µM | 0.36 µM | – | – | growth retardation of MCF-7 xenografts compared with (Iz) ([2]; 12.5 mg/kg given i.v.): greater extent of growth retardation; in vivo growth retardation of MCF-7 xenografts [2]: significant in vivo growth retardation; removal from plasma and reconversion to parent compound in vivo [4]: readily removed from such plasma and reconverted to their parent compound in vivo; in vivo growth retardation of MT-1 xenografts [3]: significant in vivo growth retardation; tumor growth inhibition in MT-1 xenografts [3, 7]: moderate tumor growth inhibition; stability in plasma in vitro [5]: stable
Cc1cc(-c2nc3ccccc3s2)ccc1NC(=O)C(N)CCCCN.Cl.Cl (centres unmarked) [Iz, 2-(4′-Amino-3′-methylphenyl)benzothiazole Lysyl Amide Dihydrochioride Salt] | 0.07 µM | 0.08 µM | – | – | body weight loss ([2]; prodrug, dose dependence): Dose-dependent body weight loss; in vivo growth retardation of MCF-7 xenografts [2]: significant in vivo growth retardation; removal from plasma and reconversion to parent compound in vivo [4]: readily removed from such plasma and reconverted to their parent compound in vivo; in vivo growth retardation of MT-1 xenografts [3]: significant in vivo growth retardation; tumor growth inhibition in MT-1 xenografts [3, 7]: moderate tumor growth inhibition; stability in plasma in vitro [5]: stable
